Source: BindingDB's records for doi:10.1016/s0014-2999(01)01087-1 (Janssen Research Foundation, 2001)

How the values were obtained:
[1] = target: 5-hydroxytryptamine receptor 1D (Homo sapiens, UniProt P28221)
[2] = target: Sodium- and chloride-dependent glycine transporter 1 (Rattus norvegicus, UniProt P28572)
[3] = target: Gastrin/cholecystokinin type B receptor (Rattus norvegicus, UniProt P30553)
[4] = target: Cysteinyl leukotriene receptor 1 (Cavia porcellus, UniProt Q2NNR5)
[5] = target: Mu-type opioid receptor (Homo sapiens, UniProt P35372)
[6] = target: Sodium- and chloride-dependent glycine transporter 2 (Homo sapiens, UniProt Q9Y345)
[7] = target: Delta-type opioid receptor (Homo sapiens, UniProt P41143)
[8] = target: Beta-3 adrenergic receptor (Homo sapiens, UniProt P13945)
Beta-3 adrenergic receptor, sequence (P13945 whole entry): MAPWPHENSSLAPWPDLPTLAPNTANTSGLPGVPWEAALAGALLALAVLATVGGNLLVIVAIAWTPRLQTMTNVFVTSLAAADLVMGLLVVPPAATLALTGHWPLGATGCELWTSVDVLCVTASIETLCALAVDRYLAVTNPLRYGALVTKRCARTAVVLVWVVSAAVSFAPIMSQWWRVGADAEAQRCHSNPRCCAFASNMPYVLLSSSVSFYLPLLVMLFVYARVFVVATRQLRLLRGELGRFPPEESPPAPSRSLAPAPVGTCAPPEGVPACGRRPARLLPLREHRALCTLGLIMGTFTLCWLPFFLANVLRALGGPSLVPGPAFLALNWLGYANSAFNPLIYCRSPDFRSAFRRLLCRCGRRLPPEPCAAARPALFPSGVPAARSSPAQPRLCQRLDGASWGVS

[9] = target: D(3) dopamine receptor (Homo sapiens, UniProt P35462)
[10] = target: B2 bradykinin receptor (Homo sapiens, UniProt P30411)
[11] = target: Substance-P receptor (Homo sapiens, UniProt P25103)
[12] = target: 5-hydroxytryptamine receptor 2A (Homo sapiens, UniProt P28223)
5-hydroxytryptamine receptor 2A, sequence (P28223 whole entry): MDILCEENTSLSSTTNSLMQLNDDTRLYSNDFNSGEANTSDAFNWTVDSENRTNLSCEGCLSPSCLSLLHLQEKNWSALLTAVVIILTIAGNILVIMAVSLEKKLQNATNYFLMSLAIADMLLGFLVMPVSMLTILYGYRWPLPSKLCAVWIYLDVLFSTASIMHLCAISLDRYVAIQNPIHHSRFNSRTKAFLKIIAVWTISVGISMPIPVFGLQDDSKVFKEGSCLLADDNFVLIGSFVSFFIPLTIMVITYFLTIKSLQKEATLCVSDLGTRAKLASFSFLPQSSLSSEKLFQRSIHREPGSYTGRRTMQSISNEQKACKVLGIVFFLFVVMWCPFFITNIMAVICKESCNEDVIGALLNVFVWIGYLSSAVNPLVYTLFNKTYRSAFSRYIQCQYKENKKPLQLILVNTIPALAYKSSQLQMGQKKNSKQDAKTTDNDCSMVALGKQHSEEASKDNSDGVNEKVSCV

[13] = target: Beta-1 adrenergic receptor (Homo sapiens, UniProt P08588)
[14] = target: 5-hydroxytryptamine receptor 1E (Homo sapiens, UniProt P28566)
[15] = target: Beta-2 adrenergic receptor (Homo sapiens, UniProt P07550)
[16] = target: Sodium-dependent dopamine transporter (Rattus norvegicus, UniProt P23977)
[17] = target: 5-hydroxytryptamine receptor 5A (Homo sapiens, UniProt P47898)
[18] = target: 5-hydroxytryptamine receptor 6 (Homo sapiens, UniProt P50406)
[19] = target: 5-hydroxytryptamine receptor 1A (Homo sapiens, UniProt P08908)
[20] = target: Alpha-2C adrenergic receptor (Homo sapiens, UniProt P18825)
[21] = target: Neurotensin (Cavia porcellus, UniProt P32560)
[22] = target: Thromboxane A2 receptor (Homo sapiens, UniProt P21731)
[23] = target: 5-hydroxytryptamine receptor 1F (Homo sapiens, UniProt P30939)
[24] = target: D(4) dopamine receptor (Homo sapiens, UniProt P21917)
[25] = target: 5-hydroxytryptamine receptor 2C (Homo sapiens, UniProt P28335)
[26] = target: Alpha-2B adrenergic receptor (Homo sapiens, UniProt P18089)
Alpha-2B adrenergic receptor, sequence (P18089 whole entry): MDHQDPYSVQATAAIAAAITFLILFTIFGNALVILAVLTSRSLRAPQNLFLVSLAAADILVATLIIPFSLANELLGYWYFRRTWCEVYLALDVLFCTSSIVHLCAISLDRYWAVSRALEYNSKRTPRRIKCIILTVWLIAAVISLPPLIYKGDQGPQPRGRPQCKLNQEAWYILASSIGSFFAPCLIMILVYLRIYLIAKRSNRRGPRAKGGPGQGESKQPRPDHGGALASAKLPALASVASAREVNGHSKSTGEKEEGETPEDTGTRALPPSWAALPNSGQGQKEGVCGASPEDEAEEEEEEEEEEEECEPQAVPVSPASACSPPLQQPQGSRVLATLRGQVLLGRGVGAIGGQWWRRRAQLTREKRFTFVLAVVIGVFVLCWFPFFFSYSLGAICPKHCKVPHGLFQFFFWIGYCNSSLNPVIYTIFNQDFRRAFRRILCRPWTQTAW

[27] = target: Substance-K receptor (Homo sapiens, UniProt P21452)
[28] = target: Kappa-type opioid receptor (Cavia porcellus, UniProt P41144)
Kappa-type opioid receptor, sequence (P41144 whole entry): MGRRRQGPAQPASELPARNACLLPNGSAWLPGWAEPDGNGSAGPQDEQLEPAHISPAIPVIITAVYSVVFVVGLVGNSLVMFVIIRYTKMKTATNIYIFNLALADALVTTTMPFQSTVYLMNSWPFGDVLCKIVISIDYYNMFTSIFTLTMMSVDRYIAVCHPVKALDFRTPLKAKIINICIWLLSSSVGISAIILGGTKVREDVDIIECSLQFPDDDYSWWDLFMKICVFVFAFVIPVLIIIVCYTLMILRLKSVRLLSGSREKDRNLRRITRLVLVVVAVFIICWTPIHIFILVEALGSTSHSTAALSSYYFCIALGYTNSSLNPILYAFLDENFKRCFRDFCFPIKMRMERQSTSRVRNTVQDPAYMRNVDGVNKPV

[29] = target: Voltage-dependent L-type calcium channel subunit alpha-1C (Rattus norvegicus, UniProt P22002)
Voltage-dependent L-type calcium channel subunit alpha-1C, sequence (P22002 whole entry): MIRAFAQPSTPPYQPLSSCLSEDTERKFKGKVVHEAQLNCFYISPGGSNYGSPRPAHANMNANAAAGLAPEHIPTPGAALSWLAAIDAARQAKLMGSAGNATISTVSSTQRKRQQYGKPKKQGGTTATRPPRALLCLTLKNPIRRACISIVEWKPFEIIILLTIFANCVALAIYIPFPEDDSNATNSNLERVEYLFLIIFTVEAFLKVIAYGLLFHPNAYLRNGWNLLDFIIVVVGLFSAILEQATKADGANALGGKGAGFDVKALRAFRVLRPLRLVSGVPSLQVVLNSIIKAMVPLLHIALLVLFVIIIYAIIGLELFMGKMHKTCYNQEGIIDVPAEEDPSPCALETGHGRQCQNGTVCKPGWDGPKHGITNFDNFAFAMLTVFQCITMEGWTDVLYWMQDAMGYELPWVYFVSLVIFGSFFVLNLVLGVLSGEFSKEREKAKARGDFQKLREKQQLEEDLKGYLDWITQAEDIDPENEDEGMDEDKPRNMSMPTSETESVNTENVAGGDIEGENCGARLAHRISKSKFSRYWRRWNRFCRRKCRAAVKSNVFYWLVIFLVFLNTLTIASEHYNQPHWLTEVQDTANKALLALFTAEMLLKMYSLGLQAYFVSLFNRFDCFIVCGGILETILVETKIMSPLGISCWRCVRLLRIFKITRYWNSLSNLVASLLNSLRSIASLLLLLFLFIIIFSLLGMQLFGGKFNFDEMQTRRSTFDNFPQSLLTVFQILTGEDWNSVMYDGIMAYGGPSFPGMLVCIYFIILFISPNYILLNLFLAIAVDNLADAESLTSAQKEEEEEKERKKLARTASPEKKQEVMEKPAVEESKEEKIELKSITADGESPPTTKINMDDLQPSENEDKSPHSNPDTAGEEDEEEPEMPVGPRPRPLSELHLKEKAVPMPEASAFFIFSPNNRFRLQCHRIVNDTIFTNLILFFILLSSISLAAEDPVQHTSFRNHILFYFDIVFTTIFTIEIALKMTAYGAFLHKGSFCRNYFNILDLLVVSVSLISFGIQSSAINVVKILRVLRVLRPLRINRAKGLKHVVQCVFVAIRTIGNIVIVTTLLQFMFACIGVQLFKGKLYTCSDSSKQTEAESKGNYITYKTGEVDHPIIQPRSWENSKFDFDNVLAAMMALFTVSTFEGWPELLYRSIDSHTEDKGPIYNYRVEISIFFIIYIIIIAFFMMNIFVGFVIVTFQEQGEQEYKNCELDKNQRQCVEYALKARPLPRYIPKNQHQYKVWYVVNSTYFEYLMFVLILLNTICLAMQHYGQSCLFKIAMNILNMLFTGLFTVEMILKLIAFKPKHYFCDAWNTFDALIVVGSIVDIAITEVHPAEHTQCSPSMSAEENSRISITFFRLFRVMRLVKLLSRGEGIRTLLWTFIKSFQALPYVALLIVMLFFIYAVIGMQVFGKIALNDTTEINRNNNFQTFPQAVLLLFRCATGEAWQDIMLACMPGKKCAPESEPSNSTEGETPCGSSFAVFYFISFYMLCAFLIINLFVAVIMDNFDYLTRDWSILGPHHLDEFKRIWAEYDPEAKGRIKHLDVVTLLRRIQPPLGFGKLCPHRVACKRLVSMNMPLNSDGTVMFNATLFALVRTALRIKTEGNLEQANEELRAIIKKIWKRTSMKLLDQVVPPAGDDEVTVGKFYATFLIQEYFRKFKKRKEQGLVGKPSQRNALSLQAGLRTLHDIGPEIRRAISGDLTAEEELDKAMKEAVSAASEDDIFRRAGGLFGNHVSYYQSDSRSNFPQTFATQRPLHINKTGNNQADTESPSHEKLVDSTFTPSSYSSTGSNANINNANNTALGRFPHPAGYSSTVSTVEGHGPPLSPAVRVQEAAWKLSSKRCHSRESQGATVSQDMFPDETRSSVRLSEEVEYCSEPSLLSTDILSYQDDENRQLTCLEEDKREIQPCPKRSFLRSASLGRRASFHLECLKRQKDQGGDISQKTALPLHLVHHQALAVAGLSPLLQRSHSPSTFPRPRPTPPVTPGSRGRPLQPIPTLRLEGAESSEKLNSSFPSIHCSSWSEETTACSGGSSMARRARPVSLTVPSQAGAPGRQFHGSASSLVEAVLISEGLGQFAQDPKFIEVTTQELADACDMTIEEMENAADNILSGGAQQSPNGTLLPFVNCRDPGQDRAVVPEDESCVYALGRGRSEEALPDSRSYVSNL

[30] = target: Gastrin/cholecystokinin type B receptor (Homo sapiens, UniProt P32239)
Gastrin/cholecystokinin type B receptor (Homo sapiens, UniProt P32239), sequence (P32239 whole entry): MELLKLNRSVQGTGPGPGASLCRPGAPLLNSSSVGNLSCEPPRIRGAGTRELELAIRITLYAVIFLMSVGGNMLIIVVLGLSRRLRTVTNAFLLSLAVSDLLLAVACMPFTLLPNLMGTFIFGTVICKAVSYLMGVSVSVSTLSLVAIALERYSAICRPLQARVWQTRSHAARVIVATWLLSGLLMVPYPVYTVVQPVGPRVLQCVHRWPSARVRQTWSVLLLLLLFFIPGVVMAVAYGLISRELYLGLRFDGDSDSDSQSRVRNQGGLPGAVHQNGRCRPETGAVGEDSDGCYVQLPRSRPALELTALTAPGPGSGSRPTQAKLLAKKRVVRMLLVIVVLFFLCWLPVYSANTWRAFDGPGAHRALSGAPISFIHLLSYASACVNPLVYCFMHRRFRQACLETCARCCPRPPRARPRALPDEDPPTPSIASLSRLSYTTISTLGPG

[31] = target: Glutamate receptor ionotropic, NMDA 1 (Rattus norvegicus, UniProt P35439)
[32] = target: Alpha-1A adrenergic receptor (Homo sapiens, UniProt P35348)
[33] = target: Histamine H1 receptor (Homo sapiens, UniProt P35367)
[34] = target: Norepinephrine transporter (Rattus norvegicus, UniProt Q9JIA2)
[35] = target: 5-hydroxytryptamine receptor 7 (Homo sapiens, UniProt P34969)
[36] = target: Alpha-2A adrenergic receptor (Homo sapiens, UniProt P08913)
[37] = target: Vasoactive intestinal polypeptide receptor 1 (Homo sapiens, UniProt P32241)
Vasoactive intestinal polypeptide receptor 1, sequence (P32241 whole entry): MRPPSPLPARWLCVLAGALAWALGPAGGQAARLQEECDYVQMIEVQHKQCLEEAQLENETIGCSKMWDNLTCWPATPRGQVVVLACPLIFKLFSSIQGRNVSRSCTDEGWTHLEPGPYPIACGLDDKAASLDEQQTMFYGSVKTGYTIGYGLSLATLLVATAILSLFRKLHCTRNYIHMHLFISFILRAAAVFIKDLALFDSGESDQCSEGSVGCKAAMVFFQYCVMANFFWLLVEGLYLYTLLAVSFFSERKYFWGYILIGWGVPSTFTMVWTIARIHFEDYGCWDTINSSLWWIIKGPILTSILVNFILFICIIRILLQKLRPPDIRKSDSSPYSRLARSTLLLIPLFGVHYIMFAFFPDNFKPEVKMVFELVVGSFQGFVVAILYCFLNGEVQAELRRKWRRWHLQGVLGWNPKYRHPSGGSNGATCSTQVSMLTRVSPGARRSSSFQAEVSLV

[38] = target: Neuromedin-K receptor (Homo sapiens, UniProt P29371)
[39] = target: 5-hydroxytryptamine receptor 3A (Mus musculus, UniProt P23979)

Question: Which Ki [1] does the source give for COCCCN1CCC(NC(=O)c2cc(Cl)c(N)c3c2OCC3)CC1 [4-Amino-5-chloro-2,3-dihydro-benzofuran-7-carboxylic acid [1-(3-methoxy-propyl)-piperidin-4-yl]-amide] here?
Answer: > 10 µM

Question: And the Ki [2]?
Answer: > 10 µM

Question: And the Ki [3]?
Answer: > 10 µM

Question: What about the Ki [4] of the same compound?
Answer: > 10 µM

Question: And the Ki [5]?
Answer: > 10 µM

Question: What about the Ki [6] of the same compound?
Answer: > 10 µM

Question: And the Ki [7]?
Answer: > 10 µM

Question: What about the Ki [8] of the same compound?
Answer: > 10 µM

Question: And the Ki [9]?
Answer: > 10 µM

Question: What about the Ki [10] of the same compound?
Answer: > 10 µM

Question: And the Ki [11]?
Answer: > 10 µM

Question: And the Ki [12]?
Answer: > 10 µM

Question: What about the Ki [13] of the same compound?
Answer: > 10 µM

Question: And the Ki [14]?
Answer: > 10 µM

Question: What about the Ki [15] of the same compound?
Answer: > 10 µM

Question: What about the Ki [16] of the same compound?
Answer: > 10 µM

Question: And the Ki [17]?
Answer: > 10 µM

Question: And the Ki [18]?
Answer: > 10 µM

Question: And the Ki [19]?
Answer: > 10 µM

Question: And the Ki [20]?
Answer: > 10 µM

Question: What about the Ki [21] of the same compound?
Answer: > 10 µM

Question: And the Ki [22]?
Answer: > 10 µM

Question: And the Ki [23]?
Answer: > 10 µM

Question: What about the Ki [24] of the same compound?
Answer: 2.35 µM

Question: And the Ki [25]?
Answer: > 10 µM

Question: What about the Ki [26] of the same compound?
Answer: > 10 µM

Question: And the Ki [27]?
Answer: > 10 µM

Question: And the Ki [28]?
Answer: > 10 µM

Question: And the Ki [29]?
Answer: > 10 µM

Question: And the Ki [30]?
Answer: > 10 µM

Question: What about the Ki [31] of the same compound?
Answer: > 10 µM

Question: And the Ki [32]?
Answer: > 10 µM

Question: What about the Ki [33] of the same compound?
Answer: > 10 µM

Question: What about the Ki [34] of the same compound?
Answer: > 10 µM

Question: What about the Ki [35] of the same compound?
Answer: > 10 µM

Question: And the Ki [36]?
Answer: > 10 µM

Question: And the Ki [37]?
Answer: > 10 µM

Question: And the Ki [38]?
Answer: > 10 µM

Question: And the Ki [39]?
Answer: 3.82 µM
